Key:
R11A [1] = experiment: CD of ligand with perfect-match rCAG hairpin R11A; type: binding; settings: 0.1x PBS
Description: FIG. 12. CD titration of LG2 with R11A. The concentration of R11A was 0.5 μM and those of LG2 were X: 0, 1.5, 2.5, 3.5, 4.5, 5.5, 6.5, 8.5, and 11.5 μM. After the addition of LG2 to R11A, the mixtures were incubated at 37° C. for 30 min prior to the acquisition of data at 25° C.
(§1) FIG. 13. CD spectra of LG2 with the (A) mismatched R11U, (B) single-stranded WS and CS, and (C) double-stranded HP containing a single binding-site, as well as that of (D) LG2P with R11A. CD spectra of RNAs (line) and that of the [RNA+ligand] mixtures (dash).
A series of model RNA targets were chosen for binding study (FIG. 11). The R11X series comprised 24 rCXG-repeats (FIG. 11 (A)), which, upon adopting a secondary hairpin structure, provided 11 binding sites for ligands (FIG. 11(B)). R11A contained the perfect-match (A-A), while R11U and R11C contained the respective U—U and C—C mismatches for ligand binding. […]
(§2) The samples were prepared in 0.1× PBS buffer. […] All steady-state fluorescence samples were prepared by mixing ligands with RNA at the indicated concentrations in 0.1× PBS buffer, and annealed by incubation at 90° C. for 5 min followed by a gradual cooling to 37° C. […] Steady-state fluorescence data were collected at 25° C. by Cary Eclipse Fluorescence Spectrometer. […]

R11A [2] = experiment: Steady-state fluorescent measurements of ligand with R11A; type: binding; settings: for fluorescent signals of ligand with R11A in presence of pentamidine: 2.5 uM of pentamidine; for reduction of emission signals upon the addition of R11A: 0.1x PBS
Description: (§3) FIG. 14. The effects of ligand orientation (LG2P), mismatched R11U and single-stranded targets (WS+CS). Inset: Fluorescent spectra of the corresponding samples after addition of 2.5 μM of pentamidine.
To further corroborate the UV-Vis and CD findings, we measured the fluorescent signals of ligands with and without RNA targets following an excitation at 330 nm (λmax of E-base). We observed a significant fluorescent quenching of LG3 compared to that of LG1 and LG2. Such a drastic reduction in the fluorescent signals could be due to photo-induced electron transfer quenching, which is expected to be most efficient for LG3 since the fluorophore (E) is stacked between two other J-bases. […] With all three ligands, the emission signals were further reduced upon the addition of R11A, but most dramatically with LG2, 60% reduction with LG2 as compared to 35 and 33% with LG1 and LG3, respectively. We observed a similar fluorescent quenching pattern upon the incubation of LG2 with R11U, [WS+CS], HP, and LG2P with R11A (FIG. 14)—although less dramatic as compared to that of LG2 with R11A. […] To test the hypothesis that the nonspecific binding of ligand to RNA can lead to fluorescent quenching, we incubated the respective RNA targets with pentamidine prior to adding LG2 and vice versa.
The samples were prepared in 0.1× PBS buffer. All spectra represent an average of at least fifteen scans collected at 100 nm/min rate between 200 and 375 nm, in a 1-cm path-length cuvette at 25° C. CD spectrum from buffer solution was subtracted from the sample spectra, which were then smoothed via a five-point adjacent averaging algorithm. Steady-State fluorescent measurements. All steady-state fluorescence samples were prepared by mixing ligands with RNA at the indicated concentrations in 0.1× PBS buffer, and annealed by incubation at 90° C. for 5 min followed by a gradual cooling to 37° C. The samples were incubated at 37° C. for 1 hr before the measurements. Steady-state fluorescence data were collected at 25° C. by Cary Eclipse Fluorescence Spectrometer. (εex=330 nm, εem=340-600 nm) with slit size.

[WS+CS] = Steady-state fluorescent measurements of ligand with single strands; type: binding
Description: as §3
(§4) To further corroborate the UV-Vis and CD findings, we measured the fluorescent signals of ligands with and without RNA targets following an excitation at 330 nm (λmax of E-base). We observed a significant fluorescent quenching of LG3 compared to that of LG1 and LG2. Such a drastic reduction in the fluorescent signals could be due to photo-induced electron transfer quenching, which is expected to be most efficient for LG3 since the fluorophore (E) is stacked between two other J-bases. […] With all three ligands, the emission signals were further reduced upon the addition of R11A, but most dramatically with LG2, 60% reduction with LG2 as compared to 35 and 33% with LG1 and LG3, respectively. […]
as §2

HP = experiment: Steady-state fluorescent measurements of ligand with HP; type: binding; settings: excitation at 330 nm
Source text: To further corroborate the UV-Vis and CD findings, we measured the fluorescent signals of ligands with and without RNA targets following an excitation at 330 nm (λmax of E-base). We observed a significant fluorescent quenching of LG3 compared to that of LG1 and LG2. Such a drastic reduction in the fluorescent signals could be due to photo-induced electron transfer quenching, which is expected to be most efficient for LG3 since the fluorophore (E) is stacked between two other J-bases. […] With all three ligands, the emission signals were further reduced upon the addition of R11A, but most dramatically with LG2, 60% reduction with LG2 as compared to 35 and 33% with LG1 and LG3, respectively. We observed a similar fluorescent quenching pattern upon the incubation of LG2 with R11U, [WS+CS], HP, and LG2P with R11A (FIG. 14)—although less dramatic as compared to that of LG2 with R11A. […]
as §2

R11U [3] = experiment: CD of ligand with mismatched R11U; type: binding; settings: 0.1x PBS
Source text: as §1
(§5) A series of model RNA targets were chosen for binding study (FIG. 11). The R11X series comprised 24 rCXG-repeats (FIG. 11 (A)), which, upon adopting a secondary hairpin structure, provided 11 binding sites for ligands (FIG. 11(B)). R11A contained the perfect-match (A-A), while R11U and R11C contained the respective U—U and C—C mismatches for ligand binding. R11G (X=G) was not ascertained since it has shown to be capable of forming G-quadruplex as well as hairpin structures, which could confound the interpretation of the experimental results. Single-stranded RNA targets, WS (Watson Strand) and CS (Crick Strand), with the LG2 binding-site underlined (FIG. 11 (C)), as well as double-stranded hairpin HP containing a single ligand binding-site (FIG. 11 (D)), were also examined. […]
as §2

R11C = experiment: CD of ligand with mismatched R11C; type: binding; settings: 0.1x PBS; data not shown
Source text: as §5, with “examined. The samples were prepared by incubating the pre-annealed RNAs with respective ligands in 0.1× PBS buffer (1 mM NaPi, 13.7 mM NaCl, 0.27 mM KCl; pH 7.4) at 37° C.” for “examined.”
as §2

R11U [4] = experiment: Steady-state fluorescent measurements of ligand with R11U; type: binding
Description: as §3, §4, §2

[5] = tested on: single-stranded WS and CS; experiment: CD of ligand with single-stranded RNA targets; type: binding; settings: 0.1x PBS
Source text: as §1, §5, §2

R11A [6] = experiment: NMR titration of ligand with R11A; type: binding; settings: R11A 0.1 mM, 0.1x PBS
Description: FIG. 15. NMR titration of LG2 with R11A. The concentration of R11A was 0.1 mM. Aliquots of LG2 at the indicated molar ratios were added to R11A and incubated at 37° C. for 15 min prior to data acquisition. Solvent-exchangeable protons are indicated by dashed lines, and nonexchangeable protons by vertical solid lines.
To gain insight into the binding mode of LG2, we performed a series of multinuclear and multidimensional NMR experiments with LG2, R11A, and in combination. The samples were prepared in the same 0.1× PBS buffer as before, containing a 9:1 volume ratio of H2O:D2O The NOESY data were collected at 300, 200, and 100 ms mixing times to obtain proton-proton distance, while COSY experiments were performed to map the proton spin-system of each residue. The expectation was that H-bonding interactions between LG2 and R11A would result in line-broadening and downfield chemical shift of the imino proton signals of the canonical G-C/C-G pairs due to base-pair opening, and in an emergence of a new set of imino proton signals due to the formation of H-bonds between ligand and RNA. […] Variable-temperature measurements further supported this chemical shift assignment, showing a gradual decay in peak intensity with increasing temperature while that of the non-exchangeable protons remained fairly constant. Partial assignments of the nucleobase protons were made by NOESY experiments. […]

[7] = tested on: double-stranded HP containing a single binding-site; experiment: CD of ligand with hairpin containing a single binding-site; settings: 0.1x PBS
Source text: as §1, §5, §2

Substance: H-IPE-Lys-NH2 [LG2P]
- change in CD signals after incubation with R11A (R11A [1]): no significant differences in the CD signals
- fluorescent signals of ligand with R11A in presence of pentamidine (R11A [2]): fully recovered
- fluorescent quenching with R11A compared to that of LG2 with R11A (R11A [2]; excitation at 330 nm): less dramatic

Substance: H-IEF-Lys-NH2 [LG3]
- reduction of emission signals upon the addition of R11A (R11A [2]; excitation at 330 nm): 33%

Substance: H-EFI-Lys-NH2 [LG2]
- fluorescent signals of ligand with [WS+CS] in presence of pentamidine ([WS+CS]; 2.5 uM of pentamidine): fully recovered
- fluorescent quenching with [WS+CS] compared to that of LG2 with R11A ([WS+CS]; excitation at 330 nm): less dramatic
- fluorescent quenching with HP compared to that of LG2 with R11A (HP): less dramatic
- change in CD signals after incubation with mismatched R11U (R11U [3]): no significant differences in the CD signals
- change in CD signals after incubation with mismatched R11C (R11C): no significant differences in the CD signals
- fluorescent signals of ligand with R11U in presence of pentamidine (R11U [4]; 2.5 uM of pentamidine): fully recovered
- fluorescent quenching with R11U compared to that of LG2 with R11A (R11U [4]; excitation at 330 nm): less dramatic
- differential in CD amplitude with R11A, among the ligand series (R11A [1]; signals at ~270 nm): largest differential in CD amplitude
- fluorescent signals of ligand with R11A in presence of pentamidine (R11A [2]): remained suppressed
- reduction of emission signals upon the addition of R11A (R11A [2]; excitation at 330 nm): 60%
- change in CD signals after incubation with single-stranded WS and CS [5]: no significant differences in the CD signals
- new imino proton signals in the 10-20 ppm regimes (H-bond formation between ligand and RNA) (R11A [6]): did not observe any new imino proton signals
- imino proton signal of R11A upon the addition of ligand (R11A [6]; 9:1 H2O:D2O): gradually broadened and downfield-shifted
- change in CD signals after incubation with HP [7]: no significant differences in the CD signals

Substance: H-FIE-Lys-NH2 [LG1]
- reduction of emission signals upon the addition of R11A (R11A [2]; excitation at 330 nm): 35%

From patent publication US20200318195A1, “Bivalent Nucleic Acid Ligands and Uses Therefor” (Carnegie Mellon University, priority 2017, published 2020)
